Experimental findings from patent US9487554B2, “Estra-1,3,5(10),16-tetraene-3-carboxamide derivatives, processes for their preparation, pharmaceutical preparations comprising them and their use for preparing medicaments” (BAYER INTELLECTUAL PROPERTY GmbH, priority 2011, dated 2016) are described below.

Several values for one entry are separate records, joined by “and”; a condition that tells them apart may be missing. Identical values can stand only once.

The target in this assay is recombinant human AKR1C3 (Homo sapiens (Human), UniProt P42330). The assay can be described thus: AKR1C3 enzyme inhibition assay (Coumberone to Coumberol fluorescence). In kind it is biochemical. To be noted: individual experimental determinations. As for the experimental part:
The AKR1C3-inhibitory activity of the substances of the present invention was measured in the AKR1C3 assay described in the paragraphs below.
Essentially, the enzyme activity is measured by quantification of the Coumberol from Coumberone (Halim, M., Yee, D. J., and Sames, D., J. AM. CHEM. SOC. 130, 14123-14128 (2008) and Yee, D. J., Balsanek, V., Bauman, D. R., Penning, T. M., and Sames, D., Proc. Natl. Acad. Sci. USA 103, 13304-13309 (2006)). In this test, the increase of the highly fluorescent Coumberol by NADPH—(nicotinamide adenine dinucleotide phosphate)-dependent reduction of the non-fluorescent Coumberone by AKR1C3 can be determined.
The enzyme used was recombinant human AKR1C3 (Aldo-keto reductase family 1 member C3) (GenBank Accession No. NM_003739). This was expressed in E. coli as GST (glutathione S transferase) fusion protein and purified by glutathione Sepharose affinity chromatography. The GST was removed by digestion with thrombin and subsequent size exclusion chromatography (Dufort, I., Rheault, P., Huang, X F., Soucy, P., and Luu-The, V., Endocrinology 140, 568-574 (1999)).
For the assay, 50 nl of a 100-fold concentrated solution of the test substance in DMSO were pipetted into a black low-volume 384-well microtiter plate (Greiner Bio-One, Frickenhausen, Germany), 2.0 μl of a solution of AKR1C3 in assay buffer [50 mM potassium phosphate buffer pH 7, 1 mM DTT, 0.0022% (w/v) Pluronic F-127, 0.01% BSA (w/v) and protease inhibitor cocktail (Complete, EDTA-free Protease Inhibitor Cocktail from Roche)] were added and the mixture was incubated for 15 min to allow pre-binding of the substances to the enzyme prior to the enzyme reaction. The enzyme reaction was then started by addition of 3 μl of a solution of NADPH (16.7 μM→final concentration in 5 μl of assay volume is 10 μM) and Coumberone (0.5 μM→final concentration in 5 μl of assay volume is 0.3 μM) in assay buffer, and the resulting mixture was incubated at 22° C. for the reaction time of 90 min. The concentration of the AKR1C3 was adapted to the respective activity of the enzyme preparation and adjusted such that the assay was carried out in the linear range. Typical concentrations were in the region of 1 nM. The reaction was stopped by addition of 5 μl of a stop solution consisting of the inhibitor EM-1404 [F. Labrie et al. U.S. Pat. No. 6,541,463, 2003] (2 μM→final concentration in […] is 1 μM). The fluorescence of the Coumberole was then measured at 520 nm (excitation at 380 nm) using a suitable measuring instrument (Pherastar from BMG Labtechnologies). The intensity of the fluorescence was used as a measure of the amount of Coumberole formed and thus of the enzyme activity of AKR1C3. The data were normalized (enzyme reaction without inhibitor=0% inhibition; all other assay components, but no enzyme=100% inhibition).

Chain of recombinant human AKR1C3 (P42330 whole entry): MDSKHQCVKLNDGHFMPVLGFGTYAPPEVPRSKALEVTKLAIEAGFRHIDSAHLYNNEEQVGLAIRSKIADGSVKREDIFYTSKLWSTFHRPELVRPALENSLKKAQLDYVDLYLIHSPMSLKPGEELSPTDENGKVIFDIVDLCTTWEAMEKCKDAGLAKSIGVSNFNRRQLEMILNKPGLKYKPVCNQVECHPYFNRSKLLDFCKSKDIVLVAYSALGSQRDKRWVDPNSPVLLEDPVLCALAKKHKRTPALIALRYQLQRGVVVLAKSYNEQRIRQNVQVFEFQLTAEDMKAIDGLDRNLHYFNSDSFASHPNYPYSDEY

As usually defined, the IC50 is the midpoint of a concentration-inhibition curve. As for `C[C@]12CC[C@@H]3c4ccc(C(=O)N[C@@H]5CCC[C@@H]5C(=O)O)cc4CC[C@H]3[C@@H]1CC=C2c1cncc(F)c1` (relative stereo) [Example 11, (1R*,2S*)-2-({[17-(5-Fluoropyridin-3-yl)estra-1,3,5(10),16-tetraen-3-yl]carbonyl}amino)-cyclopentane-1-carboxylic acid], the IC50 was 2.2 nM and 1.8 nM. Take `C[C@]12CC[C@@H]3c4ccc(C(=O)NCC5(C(=O)O)CCOCC5)cc4CC[C@H]3[C@@H]1CC=C2c1cncc(F)c1` [Example 1, 4-[({[17-(5-Fluoropyridin-3-yl)estra-1,3,5(10),16-tetraen-3-yl]carbonyl}amino)methyl]-3,4,5,6-tetrahydro-2H-pyran-4-carboxylic acid]: the 50% inhibitory concentration (IC50) is 1.4 nM and 1.9 nM. As for `C[C@]12CC[C@@H]3c4ccc(C(=O)NCC5(C(=O)O)CCCC5)cc4CC[C@H]3[C@@H]1CC=C2c1cncc(F)c1` [Example 4, 1-[({[17-(5-Fluoropyridin-3-yl)estra-1,3,5(10),16-tetraen-3-yl]carbonyl}amino)methyl]-cyclopentane-1-carboxylic acid], the IC50 was 13.9 nM and 8.9 nM. For the compound `C[C@]12CC[C@@H]3c4ccc(C(=O)N5CCC(C(=O)O)CC5)cc4CC[C@H]3[C@@H]1CC=C2c1cncc(F)c1` [Example 6, 1-{[17-(5-Fluoropyridin-3-yl)estra-1,3,5(10),16-tetraen-3-yl]carbonyl}piperidine-4-carboxylic acid], the IC50 was 21.1 nM and 21 nM. For `CC(C)(NC(=O)c1ccc2c(c1)CC[C@@H]1[C@@H]2CC[C@]2(C)C(c3cncc(F)c3)=CC[C@@H]12)C(=O)O` [Example 7, N-{[17-(5-Fluoropyridin-3-yl)estra-1,3,5(10),16-tetraen-3-yl]carbonyl}-2-methylalanine], the IC50 was 8.5 nM and 9.6 nM.

As to `C[C@]12CC[C@@H]3c4ccc(C(=O)NCCCC(=O)O)cc4CC[C@H]3[C@@H]1CC=C2c1cncc(F)c1` [Example 8, 4-({[17-(5-Fluoropyridin-3-yl)estra-1,3,5(10),16-tetraen-3-yl]carbonyl}amino)butanoic acid], the IC50 was 8.5 nM and 6.8 nM. As for `C[C@@H](CC(=O)O)NC(=O)c1ccc2c(c1)CC[C@@H]1[C@@H]2CC[C@]2(C)C(c3cncc(F)c3)=CC[C@@H]12` [Example 12, (S)-3-({[17-(5-Fluoropyridin-3-yl)estra-1,3,5(10),16-tetraen-3-yl]carbonyl}amino)-butanoic acid], the figure is 1.2 nM and 1.7 nM. Regarding `C[C@H](CC(=O)O)NC(=O)c1ccc2c(c1)CC[C@@H]1[C@@H]2CC[C@]2(C)C(c3cncc(F)c3)=CC[C@@H]12` [Example 13, (R)-3-({[17-(5-Fluoropyridin-3-yl)estra-1,3,5(10),16-tetraen-3-yl]carbonyl}amino)-butanoic acid], the IC50 is 0.8 nM and 1.8 nM. In the case of `COc1cncc(C2=CC[C@H]3[C@@H]4CCc5cc(C(=O)NCC(C)(C)C(=O)O)ccc5[C@H]4CC[C@]23C)c1` [Example 14, 3-({[17-(5-Methoxypyridin-3-yl)estra-1,3,5(10),16-tetraen-3-yl]carbonyl}amino)-2,2-dimethylpropanoic acid], the IC50 is 9.8 nM and 17.9 nM. For `COc1cncc(C2=CC[C@H]3[C@@H]4CCc5cc(C(=O)NCCC(=O)O)ccc5[C@H]4CC[C@]23C)c1` [Example 15, N-{[17-(5-Methoxypyridin-3-yl)estra-1,3,5(10),16-tetraen-3-yl]carbonyl}-β-alanine], the IC50 was 6.9 nM and 7.2 nM. As for `COc1cncc(C2=CC[C@H]3[C@@H]4CCc5cc(C(=O)N(C)CCC(=O)O)ccc5[C@H]4CC[C@]23C)c1` [Example 16, N-{[17-(5-Methoxypyridin-3-yl)estra-1,3,5(10),16-tetraen-3-yl]carbonyl}-N-methyl-β-alanine], the figure is 4.4 nM and 6.9 nM; as for `C[C@]12CC[C@@H]3c4ccc(C(=O)NCCC(=O)O)cc4CC[C@H]3[C@@H]1CC=C2c1cncnc1` [Example 17, N-{[17-(Pyrimidin-5-yl)estra-1,3,5(10),16-tetraen-3-yl]carbonyl}-β-alanine], 29.7 nM and 37.6 nM. For the compound `C[C@]12CC[C@@H]3c4ccc(C(=O)NCCCC(=O)O)cc4CC[C@H]3[C@@H]1CC=C2c1cncnc1` [Example 18, 4-({[17-(Pyrimidin-5-yl)estra-1,3,5(10),16-tetraen-3-yl]carbonyl}amino)butanoic acid], the IC50 was 23.5 nM and 31.8 nM.

`CN(CCC(=O)O)C(=O)c1ccc2c(c1)CC[C@@H]1[C@@H]2CC[C@]2(C)C(c3cncnc3)=CC[C@@H]12` [Example 19, N-Methyl-N-{[17-(pyrimidin-5-yl)estra-1,3,5(10),16-tetraen-3-yl]carbonyl}-β-alanine]: the IC50 was 26.7 nM (2×) and 17.8 nM. Consider `CC(C)(CNC(=O)c1ccc2c(c1)CC[C@@H]1[C@@H]2CC[C@]2(C)C(c3cncnc3)=CC[C@@H]12)C(=O)O` [Example 20, 2,2-Dimethyl-3-({[17-(pyrimidin-5-yl)estra-1,3,5(10),16-tetraen-3-yl]carbonyl}amino)-propanoic acid], for which the IC50 was 45.5 nM and 46.3 nM.

For `C[C@]12CC[C@@H]3c4ccc(C(=O)NCCC(=O)O)cc4CC[C@H]3[C@@H]1CC=C2c1cncc(C(F)(F)F)c1` [Example 21, N-({17-[5-(Trifluoromethyl)pyridin-3-yl]estra-1,3,5(10),16-tetraen-3-yl}carbonyl)-β-alanine], the IC50 worked out at 8.5 nM. As to `CN(CCC(=O)O)C(=O)c1ccc2c(c1)CC[C@@H]1[C@@H]2CC[C@]2(C)C(c3cncc(C(F)(F)F)c3)=CC[C@@H]12` [Example 22, N-Methyl-N-({17-[5-(trifluoromethyl)pyridin-3-yl]estra-1,3,5(10),16-tetraen-3-yl}carbonyl)-β-alanine], the IC50 came out at 4.2 nM.

As for `C[C@]12CC[C@@H]3c4ccc(C(=O)N5CCC[C@H]5C(=O)O)cc4CC[C@H]3[C@@H]1CC=C2c1cncc(F)c1` [Example 23, N-{[17-(5-Fluoropyridin-3-yl)estra-1,3,5(10),16-tetraen-3-yl]carbonyl}-L-proline], the IC50 was found to be 1.9 nM. The same measure for `C[C@]12CC[C@@H]3c4ccc(C(=O)N5CCC[C@@H]5C(=O)O)cc4CC[C@H]3[C@@H]1CC=C2c1cncc(F)c1` [Example 24, N-{[17-(5-Fluoropyridin-3-yl)estra-1,3,5(10),16-tetraen-3-yl]carbonyl}-D-proline]: 5.3 nM. As for `C[C@]12C[C@H](F)[C@@H]3c4ccc(C(=O)NCCCC(=O)O)cc4CC[C@H]3[C@@H]1CC=C2c1cncc(F)c1` [Example 25, 4-({[11β-Fluoro-17-(5-fluoropyridin-3-yl)estra-1,3,5(10),16-tetraen-3-yl]carbonyl}-amino)butanoic acid], the IC50 was 29.1 nM and 16.8 nM. Take `CN(CCC(=O)O)C(=O)c1ccc2c(c1)CC[C@H]1[C@@H]3[C@@H](O)C=C(c4cncc(F)c4)[C@@]3(C)CC[C@H]21` [Example 26, N-{[17-(5-Fluoropyridin-3-yl)-15α-hydroxyestra-1,3,5(10),16-tetraen-3-yl]carbonyl}-N-methyl-β-alanine]: the IC50 was 11 nM and 16.6 nM.

As to `CN(CCC(=O)O)C(=O)c1ccc2c(c1)CC[C@H]1[C@@H]3[C@H](O)C=C(c4cncc(F)c4)[C@@]3(C)CC[C@H]21` [Example 27, N-{[17-(5-Fluoropyridin-3-yl)-15β-hydroxyestra-1,3,5(10),16-tetraen-3-yl]carbonyl}-N-methyl-β-alanine], the IC50 was 35.3 nM and 24.2 nM.

Regarding `Cc1cc(C2=CC[C@H]3[C@@H]4CCc5cc(C(=O)N(C)CCC(=O)O)ccc5[C@H]4CC[C@]23C)cnn1` [Example 28, N-Methyl-N-{[17-(6-methylpyridazin-4-yl)estra-1,3,5(10),16-tetraen-3-yl]carbonyl}-β-alanine], the IC50 worked out at 0.5 nM. With `CN(CCC(=O)O)C(=O)c1ccc2c(c1)CC[C@@H]1[C@@H]2CC[C@]2(C)C(c3cccnc3)=CC[C@@H]12` [Example 29, N-Methyl-N-{[17-(pyridin-3-yl)estra-1,3,5(10),16-tetraen-3-yl]carbonyl}-β-alanine], the IC50 was 2.5 nM.
